Source: US20230330134A1, “METHOD OF PROPHYLAXIS OF CORONAVIRUS AND/OR RESPIRATORY SYNCYTIAL VIRUS INFECTION” (Starpharma Pty Ltd., priority 2020, published 2023)

Test system: SARS-CoV-2 (2019-nCoV/USA-WA1/2020)
Experiment: Virucidal evaluation with neutralization through sucrose cushion, plaque assay
Assay type: cell-based
Conditions: 10 mg/mL, Vero E6
[1] = 10^4 pfu/mL, 5 sec incubation, 96 hours post-infection
[2] = 10^4 pfu/mL, 10 sec incubation, 96 hours post-infection
[3] = 10^4 pfu/mL, 30 sec incubation, 16 hours post-infection
[4] = 10^4 pfu/mL, 30 sec incubation, 96 hours post-infection
[5] = 10^4 pfu/mL, 1 min incubation, 16 hours post-infection
[6] = 10^4 pfu/mL, 1 min incubation, 96 hours post-infection
[7] = 10^4 pfu/mL, 5 min incubation, 16 hours post-infection
[8] = 10^4 pfu/mL, 10 min incubation, 96 hours post-infection
[9] = 10^4 pfu/mL, 15 min incubation, 16 hours post-infection
[10] = 10^4 pfu/mL, 15 min incubation, 96 hours post-infection
[11] = 10^5 pfu/mL, 5 sec incubation, 96 hours post-infection
[12] = 10^5 pfu/mL, 10 sec incubation, 96 hours post-infection
[13] = 10^5 pfu/mL, 30 sec incubation, 16 hours post-infection
[14] = 10^5 pfu/mL, 30 sec incubation, 96 hours post-infection
[15] = 10^5 pfu/mL, 1 min incubation, 16 hours post-infection
[16] = 10^5 pfu/mL, 1 min incubation, 96 hours post-infection
[17] = 10^5 pfu/mL, 5 min incubation, 16 hours post-infection
[18] = 10^5 pfu/mL, 10 min incubation, 96 hours post-infection
[19] = 10^5 pfu/mL, 15 min incubation, 16 hours post-infection
[20] = 10^5 pfu/mL, 15 min incubation, 96 hours post-infection
[21] = 10^6 pfu/mL, 5 sec incubation, 96 hours post-infection
[22] = 10^6 pfu/mL, 10 sec incubation, 96 hours post-infection
[23] = 10^6 pfu/mL, 30 sec incubation, 96 hours post-infection
[24] = 10^6 pfu/mL, 1 min incubation, 96 hours post-infection
[25] = 10^6 pfu/mL, 10 min incubation, 96 hours post-infection

astodrimer sodium [SPL7013]
Reduction vs. Virus Control (%) [1]: -35.936% | Reduction vs. Virus Control (Log10± SD) [1]: -0.13 ± 0.21 Log10 | Reduction vs. Virus Control (%) [2]: 14.230% | Reduction vs. Virus Control (Log10± SD) [2]: 0.07 ± 0.29 Log10 | Reduction vs. Virus Control (%) [3]: 36.904% | Reduction vs. Virus Control (Log10± SD) [3]: 0.20 ± 0.20 Log10 | Reduction vs. Virus Control (%) [4]: 20.567% | Reduction vs. Virus Control (Log10± SD) [4]: 0.10 ± 0.10 Log10 | Reduction vs. Virus Control (%) [5]: 99.932% | Reduction vs. Virus Control (Log10± SD) [5]: 3.17 ± 0.12 Log10 | Reduction vs. Virus Control (%) [6]: 20.567% | Reduction vs. Virus Control (Log10± SD) [6]: 0.10 ± 0.00 Log10 | Reduction vs. Virus Control (%) [7]: 99.979% | Reduction vs. Virus Control (Log10± SD) [7]: 3.67 ± 0.21 Log10 | Reduction vs. Virus Control (%) [8]: >99.999% | Reduction vs. Virus Control (Log10± SD) [8]: 5.07 ± 0.25 Log10 | Reduction vs. Virus Control (%) [9]: 99.990% | Reduction vs. Virus Control (Log10± SD) [9]: 4.00 ± 0.10 Log10 | Reduction vs. Virus Control (%) [10]: >99.999% | Reduction vs. Virus Control (Log10± SD) [10]: 5.83 ± 0.12 Log10 | Reduction vs. Virus Control (%) [11]: 53.584% | Reduction vs. Virus Control (Log10± SD) [11]: 0.33 ± 0.21 Log10 | Reduction vs. Virus Control (%) [12]: 41.566% | Reduction vs. Virus Control (Log10± SD) [12]: 0.23 ± 0.06 Log10 | Reduction vs. Virus Control (%) [13]: 0.000% | Reduction vs. Virus Control (Log10± SD) [13]: 0.00 ± 0.36 Log10 | Reduction vs. Virus Control (%) [14]: 49.881% | Reduction vs. Virus Control (Log10± SD) [14]: 0.30 ± 0.17 Log10 | Reduction vs. Virus Control (%) [15]: 99.767% | Reduction vs. Virus Control (Log10± SD) [15]: 2.63 ± 0.15 Log10 | Reduction vs. Virus Control (%) [16]: 65.855% | Reduction vs. Virus Control (Log10± SD) [16]: 0.47 ±0.21 Log10 | Reduction vs. Virus Control (%) [17]: 99.998% | Reduction vs. Virus Control (Log10± SD) [17]: 4.63 ± 0.31 Log10 | Reduction vs. Virus Control (%) [18]: 99.980% | Reduction vs. Virus Control (Log10± SD) [18]: 3.70 ± 0.26 Log10 | Reduction vs. Virus Control (%) [19]: 99.998% | Reduction vs. Virus Control (Log10± SD) [19]: 4.60 ± 0.10 Log10 | Reduction vs. Virus Control (%) [20]: 99.998% | Reduction vs. Virus Control (Log10± SD) [20]: 4.60 ± 0.10 Log10 | Reduction vs. Virus Control (%) [21]: 20.567% | Reduction vs. Virus Control (Log10± SD) [21]: 0.10 ± 0.20 Log10 | Reduction vs. Virus Control (%) [22]: 7.388% | Reduction vs. Virus Control (Log10± SD) [22]: 0.03 ± 0.06 Log10 | Reduction vs. Virus Control (%) [23]: 20.567% | Reduction vs. Virus Control (Log10± SD) [23]: 0.10 ± 0.10 Log10 | Reduction vs. Virus Control (%) [24]: 53.584% | Reduction vs. Virus Control (Log10± SD) [24]: 0.33 ± 0.12 Log10 | Reduction vs. Virus Control (%) [25]: 99.369% | Reduction vs. Virus Control (Log10± SD) [25]: 2.20 ± 0.10 Log10 | Reduction vs. Virus Control (%) (10^6 pfu/mL, 15 min incubation, 96 hours post-infection): 99.979%
